Data as given in ChEMBL document CHEMBL1201862, “PubChem BioAssay data set” (2004).
The source made the active and inactive calls.

How the values were obtained:
[1] = target: Runt-related transcription factor 1/Core-binding factor subunit beta (Homo sapiens, UniProt Q01196+Q13951); assay: Confirmation of compounds inhibiting the binding between the RUNX1 Runt domain and CBFb-SMMHC via a fluorescence resonance energy transfer (FRET) assay. [Related pubchem assays (depositor defined):AID1434, AID1438, AID1496, AID1550, AID1645]; format: protein assay
[2] = target: T1, Heat shock factor protein 1 (Mus musculus, UniProt P38532); assay: decrease of HSF1-responsive luciferase luminescence – cell-based, NIH3T3, dose retest, confirmation (AID 2382); format: functional;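 note: NIH3T3 fibroblasts with HSF1-driven luciferase reporter stressed by proteasome inhibitor MG132; luminescence from HSF1-driven luciferase expression after 8 hours of MG132 stress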
T1 sequence (P38532 whole entry): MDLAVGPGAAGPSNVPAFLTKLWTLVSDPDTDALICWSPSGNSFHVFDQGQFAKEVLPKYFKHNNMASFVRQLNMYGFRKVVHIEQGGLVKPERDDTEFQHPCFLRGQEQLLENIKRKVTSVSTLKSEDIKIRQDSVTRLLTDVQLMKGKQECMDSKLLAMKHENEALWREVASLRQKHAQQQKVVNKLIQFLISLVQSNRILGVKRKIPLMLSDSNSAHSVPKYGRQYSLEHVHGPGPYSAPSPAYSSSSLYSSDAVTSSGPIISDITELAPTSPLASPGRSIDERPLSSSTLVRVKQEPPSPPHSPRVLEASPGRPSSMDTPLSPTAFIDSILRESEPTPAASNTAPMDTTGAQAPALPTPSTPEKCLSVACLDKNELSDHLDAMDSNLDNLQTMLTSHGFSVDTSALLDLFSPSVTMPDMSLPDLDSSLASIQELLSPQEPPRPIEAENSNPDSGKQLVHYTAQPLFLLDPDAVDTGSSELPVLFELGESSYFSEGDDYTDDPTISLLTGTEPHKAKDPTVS

[3] = target: T2, Corticotropin-releasing factor receptor 2/Corticotropin-releasing factor-binding protein (Homo sapiens, UniProt P24387+Q13324); assay: activators of CRF receptor 2 with binding protein – uHTS hits, confirmation (AID 602473); format: functional; conditions: read-out: EC50_Mean
T2 sequence (Q13324 whole entry): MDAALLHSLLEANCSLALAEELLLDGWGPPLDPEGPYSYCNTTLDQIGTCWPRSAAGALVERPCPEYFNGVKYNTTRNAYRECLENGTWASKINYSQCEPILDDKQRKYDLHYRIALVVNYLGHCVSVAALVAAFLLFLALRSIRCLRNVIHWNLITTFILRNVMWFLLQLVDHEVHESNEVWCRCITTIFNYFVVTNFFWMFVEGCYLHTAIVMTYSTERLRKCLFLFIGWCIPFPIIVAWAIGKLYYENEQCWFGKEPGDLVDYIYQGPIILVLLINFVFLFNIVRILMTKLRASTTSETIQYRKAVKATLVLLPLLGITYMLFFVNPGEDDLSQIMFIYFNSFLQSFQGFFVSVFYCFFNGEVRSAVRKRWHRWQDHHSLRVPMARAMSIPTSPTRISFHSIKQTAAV
T2 sequence (P24387 whole entry): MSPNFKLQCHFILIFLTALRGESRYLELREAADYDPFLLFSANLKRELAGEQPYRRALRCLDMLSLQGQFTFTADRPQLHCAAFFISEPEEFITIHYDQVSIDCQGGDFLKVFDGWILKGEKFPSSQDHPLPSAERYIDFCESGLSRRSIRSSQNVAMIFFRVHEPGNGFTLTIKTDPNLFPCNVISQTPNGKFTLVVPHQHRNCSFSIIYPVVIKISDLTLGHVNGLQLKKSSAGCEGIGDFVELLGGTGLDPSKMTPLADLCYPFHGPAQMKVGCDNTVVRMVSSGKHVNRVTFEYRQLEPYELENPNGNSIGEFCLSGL

[4] = target: Voltage-dependent T-type calcium channel subunit alpha-1H (Homo sapiens, UniProt O95180); assay: human CACNA1H calcium influx blockade – cell-based, synthetic library set 2, HEK293 HH8, Fluo-4, SAR follow-up (AID 493023); format: functional
Sequence of Voltage-dependent T-type calcium channel subunit alpha-1H (O95180 whole entry): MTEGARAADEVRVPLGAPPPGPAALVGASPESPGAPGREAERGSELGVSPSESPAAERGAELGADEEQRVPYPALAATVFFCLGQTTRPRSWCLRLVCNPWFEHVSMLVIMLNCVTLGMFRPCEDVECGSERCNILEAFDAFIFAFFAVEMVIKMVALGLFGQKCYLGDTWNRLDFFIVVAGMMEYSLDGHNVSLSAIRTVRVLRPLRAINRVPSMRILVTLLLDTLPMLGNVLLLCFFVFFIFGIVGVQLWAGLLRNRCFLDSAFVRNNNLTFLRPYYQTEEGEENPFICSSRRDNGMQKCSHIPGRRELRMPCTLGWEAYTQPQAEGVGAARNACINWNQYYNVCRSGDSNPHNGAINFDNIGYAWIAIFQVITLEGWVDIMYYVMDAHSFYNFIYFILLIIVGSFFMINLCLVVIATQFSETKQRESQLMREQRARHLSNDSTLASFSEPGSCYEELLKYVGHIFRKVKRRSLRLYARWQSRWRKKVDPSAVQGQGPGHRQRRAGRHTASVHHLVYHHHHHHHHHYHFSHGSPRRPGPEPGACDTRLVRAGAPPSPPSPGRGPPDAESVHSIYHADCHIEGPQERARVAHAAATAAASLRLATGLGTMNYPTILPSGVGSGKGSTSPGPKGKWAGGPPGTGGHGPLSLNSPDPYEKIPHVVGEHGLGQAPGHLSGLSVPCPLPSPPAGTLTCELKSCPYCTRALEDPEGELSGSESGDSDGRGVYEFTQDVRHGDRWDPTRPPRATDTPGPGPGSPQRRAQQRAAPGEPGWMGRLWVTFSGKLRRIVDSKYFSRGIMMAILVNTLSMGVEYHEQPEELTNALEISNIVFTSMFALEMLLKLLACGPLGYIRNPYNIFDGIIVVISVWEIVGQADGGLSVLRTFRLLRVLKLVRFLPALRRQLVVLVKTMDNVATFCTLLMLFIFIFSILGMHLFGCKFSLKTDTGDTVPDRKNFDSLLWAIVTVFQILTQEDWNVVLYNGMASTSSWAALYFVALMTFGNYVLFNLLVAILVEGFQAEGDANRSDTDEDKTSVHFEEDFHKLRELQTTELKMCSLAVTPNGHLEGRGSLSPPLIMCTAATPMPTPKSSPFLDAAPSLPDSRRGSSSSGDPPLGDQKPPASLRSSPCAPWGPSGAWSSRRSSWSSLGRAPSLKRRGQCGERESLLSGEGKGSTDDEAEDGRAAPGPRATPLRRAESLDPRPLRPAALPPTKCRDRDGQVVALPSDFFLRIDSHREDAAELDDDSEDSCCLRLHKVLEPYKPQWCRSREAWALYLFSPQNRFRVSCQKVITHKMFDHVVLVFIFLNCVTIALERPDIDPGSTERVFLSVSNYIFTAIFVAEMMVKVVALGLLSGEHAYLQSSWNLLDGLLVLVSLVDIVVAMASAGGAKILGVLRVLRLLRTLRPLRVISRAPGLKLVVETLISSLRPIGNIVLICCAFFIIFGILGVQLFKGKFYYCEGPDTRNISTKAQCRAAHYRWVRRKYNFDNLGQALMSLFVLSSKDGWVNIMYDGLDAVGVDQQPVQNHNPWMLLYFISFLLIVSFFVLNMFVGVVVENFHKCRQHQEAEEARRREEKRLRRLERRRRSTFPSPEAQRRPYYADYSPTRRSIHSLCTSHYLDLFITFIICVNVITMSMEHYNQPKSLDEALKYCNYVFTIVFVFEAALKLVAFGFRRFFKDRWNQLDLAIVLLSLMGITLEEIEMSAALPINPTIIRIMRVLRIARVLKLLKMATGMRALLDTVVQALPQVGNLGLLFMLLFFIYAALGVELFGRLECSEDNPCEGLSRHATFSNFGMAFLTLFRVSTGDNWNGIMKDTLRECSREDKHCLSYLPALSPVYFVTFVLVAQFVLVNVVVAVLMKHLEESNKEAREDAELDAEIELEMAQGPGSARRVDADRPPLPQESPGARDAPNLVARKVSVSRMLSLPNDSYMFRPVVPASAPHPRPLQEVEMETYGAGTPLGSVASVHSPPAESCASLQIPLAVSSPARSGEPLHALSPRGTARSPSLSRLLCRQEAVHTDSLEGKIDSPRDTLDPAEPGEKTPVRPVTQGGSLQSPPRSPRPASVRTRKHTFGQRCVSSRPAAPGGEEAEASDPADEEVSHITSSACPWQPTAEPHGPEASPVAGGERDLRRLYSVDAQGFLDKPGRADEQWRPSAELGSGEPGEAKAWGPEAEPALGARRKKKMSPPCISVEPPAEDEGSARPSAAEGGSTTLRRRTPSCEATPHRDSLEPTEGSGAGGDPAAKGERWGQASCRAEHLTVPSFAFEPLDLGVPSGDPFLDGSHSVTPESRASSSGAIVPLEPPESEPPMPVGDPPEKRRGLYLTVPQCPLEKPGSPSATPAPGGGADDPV

Sequence of Runt-related transcription factor 1/Core-binding factor subunit beta (Q01196 whole entry, the tested form may be a part): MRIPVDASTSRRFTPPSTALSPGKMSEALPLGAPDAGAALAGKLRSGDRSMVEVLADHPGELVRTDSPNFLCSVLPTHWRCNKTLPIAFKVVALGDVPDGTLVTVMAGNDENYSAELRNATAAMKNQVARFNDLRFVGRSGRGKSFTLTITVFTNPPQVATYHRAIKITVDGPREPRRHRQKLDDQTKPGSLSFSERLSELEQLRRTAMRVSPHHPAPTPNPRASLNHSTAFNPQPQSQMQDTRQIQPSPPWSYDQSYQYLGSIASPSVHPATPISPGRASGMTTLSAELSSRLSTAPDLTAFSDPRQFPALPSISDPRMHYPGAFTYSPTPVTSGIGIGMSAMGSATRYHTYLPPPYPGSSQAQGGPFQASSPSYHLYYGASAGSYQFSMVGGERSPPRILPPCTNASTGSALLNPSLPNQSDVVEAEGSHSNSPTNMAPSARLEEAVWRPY
Sequence of Runt-related transcription factor 1/Core-binding factor subunit beta (Q13951 whole entry, the tested form may be a part): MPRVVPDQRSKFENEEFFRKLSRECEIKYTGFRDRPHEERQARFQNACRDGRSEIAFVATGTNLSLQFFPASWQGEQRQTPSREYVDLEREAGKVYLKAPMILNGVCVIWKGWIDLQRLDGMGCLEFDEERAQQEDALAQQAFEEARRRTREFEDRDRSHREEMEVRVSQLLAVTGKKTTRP

IC50 [1]	EC50 [2]	EC50 [3]	EC50 [4]	SMILES
12.8 µM (active)	92.9 µM (active)	> 53 µM (inactive)	–	CCS(=O)(=O)Nc1ccc(-c2nc3cccnc3s2)cc1
–	–	–	10 µM (active)	O=C(COc1ccc(F)c(Cl)c1)N[C@H]1CCCN(Cc2ccccc2)C1
